Data published in PubChem BioAssay AID328 (DTP/NCI, 2004).
Inconclusive results and toxic doses are left out.

Test system: BDF1 mice, P388 leukemia ip, median survival T/C
Experiment: NCI In Vivo Anticancer Drug Screen. Data for tumor model P388 Leukemia (intraperitoneal) in B6D2F1 (BDF1) mice
Conditions: endpoint: median survival time, higher = longer survival
Protocol: The antitumor activity of compounds was measured in mice bearing transplantable tumors. Survival or tumor size were measured and the results are expressed as the measurement made in the treated group (T) divided by the measurement made in the vehicle treated control group (C). The tumor model used in this assay is P388 Leukemia (intraperitoneal) in B6D2F1 (BDF1) mice

[1] = dose: 100.0 mg/kg/injection, schedule: Q04DX003 (ip), vehicle: saline with Tween-80
[2] = dose: 200.0 mg/kg/injection, schedule: Q04DX003 (ip), vehicle: saline with Tween-80
[3] = dose: 400.0 mg/kg/injection, schedule: Q04DX003 (ip), vehicle: saline with Tween-80
[4] = dose: 200.0 mg/kg/injection, schedule: Q04DX002 (ip), vehicle: saline with Tween-80
[5] = dose: 400.0 mg/kg/injection, schedule: Q04DX002 (ip), vehicle: saline with Tween-80
[6] = dose: 200.0 mg/kg/injection, schedule: Q04DX003 (ip), vehicle: Klucel (hydroxypropylcellulose) (HPC)
[7] = dose: 50.0 mg/kg/injection, schedule: Q01DX009 (ip), vehicle: saline with Tween-80
[8] = dose: 100.0 mg/kg/injection, schedule: Q01DX009 (ip), vehicle: saline with Tween-80
[9] = dose: 200.0 mg/kg/injection, schedule: Q01DX009 (ip), vehicle: saline with Tween-80
[10] = dose: 12.5 mg/kg/injection, schedule: Q01DX009 (ip), vehicle: saline with Tween-80
[11] = dose: 25.0 mg/kg/injection, schedule: Q01DX009 (ip), vehicle: saline with Tween-80
[12] = dose: 400.0 mg/kg/injection, schedule: Q01DX009 (ip), vehicle: saline with Tween-80

## O=C(O)c1cc2c3c(c1)CCCN3CCC2
[1]
  T/C: 90 % of control
[2]
  T/C: 100 % of control
[3]
  T/C: 90 % of control

## C1CC[N-]CC1.C1CC[N-]CC1.C1CC[N-]CC1.C1CC[N-]CC1.[Pt+4]
dose: 6.25 mg/kg/injection, schedule: Q01DX009 (ip), vehicle: saline
  T/C: 110 % of control
dose: 12.5 mg/kg/injection, schedule: Q01DX009 (ip), vehicle: saline
  T/C: 100 % of control

## Cc1ccc2c(c1O)NC(=O)C1CCCN1C2=O (configuration not stated)
dose: 100.0 mg/kg/injection, schedule: Q04DX002 (ip), vehicle: saline with Tween-80
  T/C: 99 % of control
[4]
  T/C: 102 % of control
[5]
  T/C: 101 % of control

## O=S(=O)(O)c1ccc(/C2=c3\cc/c([n-]3)=C(\c3ccc(S(=O)(=O)O)cc3)c3ccc([n-]3)/C(c3ccc(S(=O)(=O)O)cc3)=c3/cc/c([n-]3)=C(\c3ccc(S(=O)(=O)O)cc3)c3ccc2[n-]3)cc1.[Zn]
dose: 62.5 mg/kg/injection, schedule: Q01DX009 (ip), vehicle: saline with Tween-80
  T/C: 106 % of control

## O=c1c2ccccc2c2c3c1cccc3c1cccc3c(=O)c4ccccc4c2c31
[1]
  T/C: 86 % of control
[2]
  T/C: 90 % of control
[3]
  T/C: 90 % of control

## C[N+](C)(C)c1ccc2ccccc2n1
dose: 3.12 mg/kg/injection, schedule: Q01DX001 (ip), vehicle: Klucel (hydroxypropylcellulose) (HPC)
  T/C: 122 % of control
dose: 6.25 mg/kg/injection, schedule: Q01DX001 (ip), vehicle: Klucel (hydroxypropylcellulose) (HPC)
  T/C: 110 % of control
dose: 12.5 mg/kg/injection, schedule: Q01DX001 (ip), vehicle: Klucel (hydroxypropylcellulose) (HPC)
  T/C: 122 % of control
dose: 18.5 mg/kg/injection, schedule: Q01DX001 (ip), vehicle: Klucel (hydroxypropylcellulose) (HPC)
  T/C: 112 % of control
dose: 25.0 mg/kg/injection, schedule: Q01DX001 (ip), vehicle: saline
  T/C: 120 % of control
dose: 50.0 mg/kg/injection, schedule: Q01DX001 (ip), vehicle: saline
  T/C: 118 % of control

## C(=N\C(/N=C/c1ccccc1)c1ccccc1)/c1ccccc1
dose: 100.0 mg/kg/injection, schedule: Q01DX009 (ip), vehicle: Klucel (hydroxypropylcellulose) (HPC)
  T/C: 91 % of control
dose: 100.0 mg/kg/injection, schedule: Q04DX003 (ip), vehicle: Klucel (hydroxypropylcellulose) (HPC)
  T/C: 100 % of control
[6]
  T/C: 95 % of control
dose: 400.0 mg/kg/injection, schedule: Q01DX009 (ip), vehicle: Klucel (hydroxypropylcellulose) (HPC)
  T/C: 87 % of control
dose: 400.0 mg/kg/injection, schedule: Q04DX003 (ip), vehicle: Klucel (hydroxypropylcellulose) (HPC)
  T/C: 100 % of control

## O=C(Nc1cccc(Cl)c1)NN(c1ccccc1)C1CCS(=O)(=O)C1 (configuration not stated)
[7]
  T/C: 99 % of control
[8]
  T/C: 98 % of control
[9]
  T/C: 100 % of control

## CN=C(NC)c1ccc(NC(=O)/C=C\c2ccc(C(=O)Nc3ccc(C(=NC)NC)cc3)cc2)cc1
dose: 0.15 mg/kg/injection, schedule: Q01DX009 (ip), vehicle: saline with Tween-80
  T/C: 116 % of control
dose: 0.5 mg/kg/injection, schedule: Q01DX009 (ip), vehicle: saline with Tween-80
  T/C: 155 % of control
dose: 1.32 mg/kg/injection, schedule: Q04DX003 (ip), vehicle: saline with Tween-80
  T/C: 108 % of control
dose: 1.5 mg/kg/injection, schedule: Q01DX009 (ip), vehicle: saline with Tween-80
  T/C: 161 % of control
dose: 2.0 mg/kg/injection, schedule: Q04DX003 (ip), vehicle: saline with Tween-80
  T/C: 112 % of control
dose: 4.4 mg/kg/injection, schedule: Q04DX003 (ip), vehicle: saline with Tween-80
  T/C: 154 % of control
dose: 4.5 mg/kg/injection, schedule: Q04DX003 (ip), vehicle: saline with Tween-80
  T/C: 162 % of control
dose: 6.6 mg/kg/injection, schedule: Q04DX003 (ip), vehicle: saline with Tween-80
  T/C: 168 % of control
dose: 10.0 mg/kg/injection, schedule: Q04DX003 (ip), vehicle: saline with Tween-80
  T/C: 154 % of control
dose: 12.5 mg/kg/injection, schedule: Q04DX003 (ip), vehicle: saline with Tween-80
  T/C: 177 % of control
dose: 15.0 mg/kg/injection, schedule: Q04DX003 (ip), vehicle: saline with Tween-80
  T/C: 177 % of control
dose: 25.0 mg/kg/injection, schedule: Q04DX003 (ip), vehicle: saline with Tween-80
  T/C: 100 % of control
dose: 50.0 mg/kg/injection, schedule: Q04DX003 (ip), vehicle: saline with Tween-80
  T/C: 86 % of control

## CC(=O)Nc1ccc(OC(=O)Nc2ccc(C)c(NC(=O)Oc3ccc(NC(C)=O)cc3)c2)cc1
dose: 50.0 mg/kg/injection, schedule: Q01DX005 (ip), vehicle: saline with Tween-80
  T/C: 96 % of control
dose: 100.0 mg/kg/injection, schedule: Q01DX005 (ip), vehicle: saline with Tween-80
  T/C: 102 % of control
dose: 200.0 mg/kg/injection, schedule: Q01DX005 (ip), vehicle: saline with Tween-80
  T/C: 119 % of control

## Nc1ccc(SCc2nc3cccc4c3n2CCC4)cc1
[1]
  T/C: 91 % of control
[2]
  T/C: 95 % of control
[3]
  T/C: 95 % of control

## CN(C)c1ccc(CC2Cc3ccccc3C2=O)cc1 (configuration not stated)
dose: 100.0 mg/kg/injection, schedule: Q01DX009 (ip), vehicle: other
  T/C: 104 % of control
[1]
  T/C: 90 % of control
dose: 200.0 mg/kg/injection, schedule: Q01DX009 (ip), vehicle: other
  T/C: 108 % of control
[2]
  T/C: 100 % of control
[3]
  T/C: 95 % of control

## c1cc[c]([Pb]([c]2ccccc2)[c]2ccccc2)cc1.c1cc[c]([Pb]([c]2ccccc2)[c]2ccccc2)cc1
dose: 3.13 mg/kg/injection, schedule: Q01DX009 (ip), vehicle: saline with Tween-80
  T/C: 109 % of control
dose: 6.25 mg/kg/injection, schedule: Q01DX009 (ip), vehicle: saline with Tween-80
  T/C: 104 % of control
[10]
  T/C: 101 % of control
[11]
  T/C: 104 % of control

## CC(C)(C)N(O)N=O.CC(C)(C)N(O)N=O.[Cu]
dose: 1.56 mg/kg/injection, schedule: Q01DX001 (ip), vehicle: saline
  T/C: 107 % of control
dose: 3.13 mg/kg/injection, schedule: Q01DX001 (ip), vehicle: saline
  T/C: 109 % of control
dose: 6.25 mg/kg/injection, schedule: Q01DX001 (ip), vehicle: saline
  T/C: 106 % of control

## CC(CCC(=O)NC12CC3CC(CC(C3)C1)C2)C1CCC2C3C(OC=O)CC4CC(OC=O)CCC4(C)C3CC(OC=O)C12C (configuration not stated)
dose: 12.5 mg/kg/injection, schedule: Q04DX002 (ip), vehicle: saline with Tween-80
  T/C: 98 % of control
dose: 25.0 mg/kg/injection, schedule: Q04DX002 (ip), vehicle: saline with Tween-80
  T/C: 100 % of control
dose: 50.0 mg/kg/injection, schedule: Q04DX002 (ip), vehicle: saline with Tween-80
  T/C: 100 % of control
[4]
  T/C: 88 % of control
[5]
  T/C: 98 % of control

## COC1(c2ccc([N+](=O)[O-])o2)OC1(C)C (configuration not stated)
[10]
  T/C: 111 % of control
[11]
  T/C: 118 % of control
[7]
  T/C: 113 % of control
[8]
  T/C: 111 % of control
[1]
  T/C: 99 % of control
[9]
  T/C: 117 % of control
[2]
  T/C: 107 % of control
[12]
  T/C: 108 % of control
[3]
  T/C: 109 % of control

## CCOC(=O)c1cc2ccccc2n1-c1ccccc1
[12]
  T/C: 103 % of control

## O=[N+]([O-])c1ccc(NS(=O)(=O)c2cccs2)c([N+](=O)[O-])c1
[7]
  T/C: 96 % of control

## CCCn1cnc2c(=S)nc(N)[nH]c21
dose: 6.25 mg/kg/injection, schedule: Q01DX009 (ip), vehicle: Klucel (hydroxypropylcellulose) (HPC)
  T/C: 100 % of control
dose: 12.5 mg/kg/injection, schedule: Q01DX009 (ip), vehicle: Klucel (hydroxypropylcellulose) (HPC)
  T/C: 86 % of control
dose: 25.0 mg/kg/injection, schedule: Q01DX009 (ip), vehicle: Klucel (hydroxypropylcellulose) (HPC)
  T/C: 86 % of control
dose: 29.0 mg/kg/injection, schedule: Q04DX003 (ip), vehicle: Klucel (hydroxypropylcellulose) (HPC)
  T/C: 110 % of control
dose: 45.0 mg/kg/injection, schedule: Q04DX003 (ip), vehicle: Klucel (hydroxypropylcellulose) (HPC)
  T/C: 115 % of control
dose: 50.0 mg/kg/injection, schedule: Q01DX009 (ip), vehicle: Klucel (hydroxypropylcellulose) (HPC)
  T/C: 105 % of control
dose: 150.0 mg/kg/injection, schedule: Q04DX003 (ip), vehicle: Klucel (hydroxypropylcellulose) (HPC)
  T/C: 150 % of control
[6]
  T/C: 118 % of control

## Clc1cc(C(Cl)(Cl)Cl)ccc1C(Cl)(Cl)Cl
dose: 100.0 mg/kg/injection, schedule: Q01DX001 (ip), vehicle: saline with Tween-80
  T/C: 100 % of control
dose: 200.0 mg/kg/injection, schedule: Q01DX001 (ip), vehicle: saline with Tween-80
  T/C: 104 % of control
dose: 400.0 mg/kg/injection, schedule: Q01DX001 (ip), vehicle: saline with Tween-80
  T/C: 95 % of control

## CN1CC=Nc2c1nc(N)[nH]c2=O
[10]
  T/C: 109 % of control
[11]
  T/C: 107 % of control
[7]
  T/C: 102 % of control
